Measured values as given in patent US9156790B2, “Anticancer P21-activated kinase inhibitors” (Ohio State Innovation Foundation, priority 2013, dated 2015).
Entries after “also recorded” stand apart in the source; their conditions may differ.

Key:
[1] = target: C-RAF (Homo sapiens, UniProt P04049); experiment: Kinase profiling panel: C-RAF; format: biochemical; conditions: 5 μM compound; average of triplicate
Method: (§1) To further probe the selectivity of the compounds 4 and 15, they were subjected for kinase profiling service for screening against a panel of other kinases selected based on the kinase tree at 5 μM concentration, at or above the IC50 for the two compounds versus PAK in both in vitro and cell-based assays. […] PAK1 was not available for testing using this system thus it was not possible to compare directly in this assay system.

[2] = target: EGFR (Homo sapiens, UniProt P00533); experiment: Kinase profiling panel: EGFR; format: biochemical; conditions: 5 μM compound; average of triplicate
Chain of EGFR (P00533 25-1210, species assumed): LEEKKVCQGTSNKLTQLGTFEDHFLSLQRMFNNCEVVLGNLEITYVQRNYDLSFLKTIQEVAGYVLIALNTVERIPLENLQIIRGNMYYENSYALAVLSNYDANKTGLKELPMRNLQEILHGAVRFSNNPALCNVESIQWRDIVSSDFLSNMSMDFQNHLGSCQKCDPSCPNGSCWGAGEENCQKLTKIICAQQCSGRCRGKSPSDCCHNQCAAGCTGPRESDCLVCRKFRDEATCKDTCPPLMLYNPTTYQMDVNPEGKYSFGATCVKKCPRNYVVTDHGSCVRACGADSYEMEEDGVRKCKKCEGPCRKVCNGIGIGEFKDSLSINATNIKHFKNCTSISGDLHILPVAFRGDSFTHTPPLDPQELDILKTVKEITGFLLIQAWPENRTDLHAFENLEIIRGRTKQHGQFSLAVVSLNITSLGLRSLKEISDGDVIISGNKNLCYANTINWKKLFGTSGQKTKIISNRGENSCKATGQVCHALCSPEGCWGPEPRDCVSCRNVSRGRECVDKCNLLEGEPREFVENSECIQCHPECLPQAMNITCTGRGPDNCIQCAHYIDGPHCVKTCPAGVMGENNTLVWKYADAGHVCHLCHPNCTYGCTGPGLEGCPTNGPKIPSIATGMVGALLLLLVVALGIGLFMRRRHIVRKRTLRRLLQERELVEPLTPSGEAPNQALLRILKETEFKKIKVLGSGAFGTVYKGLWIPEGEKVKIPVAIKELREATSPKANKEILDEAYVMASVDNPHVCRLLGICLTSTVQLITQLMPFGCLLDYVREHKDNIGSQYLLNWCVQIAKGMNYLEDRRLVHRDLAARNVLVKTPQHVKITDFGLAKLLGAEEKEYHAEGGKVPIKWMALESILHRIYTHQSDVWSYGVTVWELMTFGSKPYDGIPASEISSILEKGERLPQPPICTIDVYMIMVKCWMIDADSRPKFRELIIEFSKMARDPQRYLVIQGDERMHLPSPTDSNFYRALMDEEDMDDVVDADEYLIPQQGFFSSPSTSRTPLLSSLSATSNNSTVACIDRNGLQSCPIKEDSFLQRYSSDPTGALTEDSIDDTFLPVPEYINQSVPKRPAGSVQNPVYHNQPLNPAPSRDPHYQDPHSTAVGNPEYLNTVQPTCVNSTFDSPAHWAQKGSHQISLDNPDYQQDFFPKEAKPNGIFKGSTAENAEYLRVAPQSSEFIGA
Method: as §1

[3] = target: IGF-1R, activated (Homo sapiens, UniProt P08069); experiment: Kinase profiling panel: IGF-1R, activated; format: biochemical; conditions: 5 μM compound; average of triplicate
Chain of IGF-1R, activated (P08069 31-1367): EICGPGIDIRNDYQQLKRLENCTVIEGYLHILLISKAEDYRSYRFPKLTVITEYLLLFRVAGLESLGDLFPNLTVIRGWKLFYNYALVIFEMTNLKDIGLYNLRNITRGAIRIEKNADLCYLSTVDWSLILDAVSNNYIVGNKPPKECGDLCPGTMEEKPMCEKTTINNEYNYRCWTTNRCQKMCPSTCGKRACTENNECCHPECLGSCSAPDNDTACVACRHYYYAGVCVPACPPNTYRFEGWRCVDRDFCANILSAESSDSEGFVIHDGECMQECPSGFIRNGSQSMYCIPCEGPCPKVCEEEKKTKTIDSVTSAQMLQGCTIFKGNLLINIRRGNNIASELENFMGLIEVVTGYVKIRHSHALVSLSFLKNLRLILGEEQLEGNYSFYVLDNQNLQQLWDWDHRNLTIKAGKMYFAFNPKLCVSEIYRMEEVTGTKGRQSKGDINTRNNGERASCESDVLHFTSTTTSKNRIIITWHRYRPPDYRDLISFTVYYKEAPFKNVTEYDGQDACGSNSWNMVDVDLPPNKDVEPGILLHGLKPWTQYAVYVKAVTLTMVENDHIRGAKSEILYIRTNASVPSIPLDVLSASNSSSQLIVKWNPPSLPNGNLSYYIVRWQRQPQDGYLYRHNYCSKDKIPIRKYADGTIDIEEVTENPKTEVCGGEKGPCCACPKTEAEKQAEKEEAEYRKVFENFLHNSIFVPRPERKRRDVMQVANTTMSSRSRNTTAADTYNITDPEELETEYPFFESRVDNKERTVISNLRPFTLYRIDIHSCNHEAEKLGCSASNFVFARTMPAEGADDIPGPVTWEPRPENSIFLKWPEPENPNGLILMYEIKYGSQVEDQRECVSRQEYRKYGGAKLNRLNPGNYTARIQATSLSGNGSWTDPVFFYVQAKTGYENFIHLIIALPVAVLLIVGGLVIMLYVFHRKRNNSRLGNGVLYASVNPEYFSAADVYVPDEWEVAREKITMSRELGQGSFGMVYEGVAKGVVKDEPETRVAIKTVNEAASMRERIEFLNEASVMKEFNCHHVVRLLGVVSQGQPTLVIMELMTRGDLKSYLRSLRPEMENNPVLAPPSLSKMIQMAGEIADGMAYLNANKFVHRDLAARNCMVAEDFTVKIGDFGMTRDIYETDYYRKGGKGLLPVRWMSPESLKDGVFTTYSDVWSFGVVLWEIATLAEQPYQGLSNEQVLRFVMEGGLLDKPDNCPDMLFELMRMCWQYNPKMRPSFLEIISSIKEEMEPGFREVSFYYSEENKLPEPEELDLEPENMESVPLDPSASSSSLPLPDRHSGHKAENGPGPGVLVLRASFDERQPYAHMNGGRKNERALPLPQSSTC
Method: as §1

[4] = target: LIMK1 (Homo sapiens, UniProt P53667); experiment: Kinase profiling panel: LIMK1; format: biochemical; conditions: 5 μM compound; average of triplicate
Method: as §1

[5] = target: MEK1 (Homo sapiens, UniProt Q02750); experiment: Kinase profiling panel: MEK1; format: biochemical; conditions: 5 μM compound; average of triplicate
Method: as §1

[6] = target: PKBγ (Homo sapiens, UniProt Q9Y243); experiment: Kinase profiling panel: PKBγ; format: biochemical; conditions: 5 μM compound; for remaining activity at 5 µM: average of triplicate, read-out: % activity vs. DMSO, PKBγ
Chain of PKBγ (Q9Y243 whole entry, species assumed): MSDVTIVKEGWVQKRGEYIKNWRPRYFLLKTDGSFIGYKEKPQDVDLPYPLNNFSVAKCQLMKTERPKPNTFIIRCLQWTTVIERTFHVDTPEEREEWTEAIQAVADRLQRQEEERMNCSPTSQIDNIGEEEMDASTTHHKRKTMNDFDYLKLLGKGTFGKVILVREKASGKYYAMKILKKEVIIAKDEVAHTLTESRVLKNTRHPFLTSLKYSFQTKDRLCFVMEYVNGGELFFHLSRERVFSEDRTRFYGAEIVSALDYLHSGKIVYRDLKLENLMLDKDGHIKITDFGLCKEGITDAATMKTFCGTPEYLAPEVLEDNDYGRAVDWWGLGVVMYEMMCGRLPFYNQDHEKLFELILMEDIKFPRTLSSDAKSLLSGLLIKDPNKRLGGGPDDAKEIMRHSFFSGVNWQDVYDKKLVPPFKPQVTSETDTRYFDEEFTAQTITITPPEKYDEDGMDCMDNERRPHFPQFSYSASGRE
Method: as §1

[7] = target: PKCδ (Homo sapiens, UniProt Q05655); experiment: Kinase profiling panel: PKCδ; format: biochemical; conditions: 5 μM compound; average of triplicate
Chain of PKCδ (Q05655 whole entry): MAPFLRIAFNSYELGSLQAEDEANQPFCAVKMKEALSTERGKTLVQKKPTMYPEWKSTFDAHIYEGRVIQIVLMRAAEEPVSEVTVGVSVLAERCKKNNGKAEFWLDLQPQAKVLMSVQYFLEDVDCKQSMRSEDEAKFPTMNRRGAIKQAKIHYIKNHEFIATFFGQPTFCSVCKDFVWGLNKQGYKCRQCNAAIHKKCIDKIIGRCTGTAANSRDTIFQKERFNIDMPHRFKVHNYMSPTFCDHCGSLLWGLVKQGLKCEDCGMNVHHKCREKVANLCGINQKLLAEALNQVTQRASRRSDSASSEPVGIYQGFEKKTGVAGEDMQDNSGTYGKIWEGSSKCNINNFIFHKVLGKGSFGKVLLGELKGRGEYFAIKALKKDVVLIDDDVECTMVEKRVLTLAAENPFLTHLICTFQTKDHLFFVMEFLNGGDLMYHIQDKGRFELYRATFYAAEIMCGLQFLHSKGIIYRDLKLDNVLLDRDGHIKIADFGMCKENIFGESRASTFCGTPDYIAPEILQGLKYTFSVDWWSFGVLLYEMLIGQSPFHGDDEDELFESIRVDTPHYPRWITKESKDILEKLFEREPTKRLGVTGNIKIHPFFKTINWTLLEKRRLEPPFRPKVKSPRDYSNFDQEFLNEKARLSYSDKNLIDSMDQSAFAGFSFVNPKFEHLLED
Method: as §1

[8] = target: ROCK-I (Homo sapiens, UniProt Q13464); experiment: Kinase profiling panel: ROCK-I; format: biochemical; conditions: 5 μM compound; average of triplicate
Chain of ROCK-I (Q13464 whole entry, species assumed): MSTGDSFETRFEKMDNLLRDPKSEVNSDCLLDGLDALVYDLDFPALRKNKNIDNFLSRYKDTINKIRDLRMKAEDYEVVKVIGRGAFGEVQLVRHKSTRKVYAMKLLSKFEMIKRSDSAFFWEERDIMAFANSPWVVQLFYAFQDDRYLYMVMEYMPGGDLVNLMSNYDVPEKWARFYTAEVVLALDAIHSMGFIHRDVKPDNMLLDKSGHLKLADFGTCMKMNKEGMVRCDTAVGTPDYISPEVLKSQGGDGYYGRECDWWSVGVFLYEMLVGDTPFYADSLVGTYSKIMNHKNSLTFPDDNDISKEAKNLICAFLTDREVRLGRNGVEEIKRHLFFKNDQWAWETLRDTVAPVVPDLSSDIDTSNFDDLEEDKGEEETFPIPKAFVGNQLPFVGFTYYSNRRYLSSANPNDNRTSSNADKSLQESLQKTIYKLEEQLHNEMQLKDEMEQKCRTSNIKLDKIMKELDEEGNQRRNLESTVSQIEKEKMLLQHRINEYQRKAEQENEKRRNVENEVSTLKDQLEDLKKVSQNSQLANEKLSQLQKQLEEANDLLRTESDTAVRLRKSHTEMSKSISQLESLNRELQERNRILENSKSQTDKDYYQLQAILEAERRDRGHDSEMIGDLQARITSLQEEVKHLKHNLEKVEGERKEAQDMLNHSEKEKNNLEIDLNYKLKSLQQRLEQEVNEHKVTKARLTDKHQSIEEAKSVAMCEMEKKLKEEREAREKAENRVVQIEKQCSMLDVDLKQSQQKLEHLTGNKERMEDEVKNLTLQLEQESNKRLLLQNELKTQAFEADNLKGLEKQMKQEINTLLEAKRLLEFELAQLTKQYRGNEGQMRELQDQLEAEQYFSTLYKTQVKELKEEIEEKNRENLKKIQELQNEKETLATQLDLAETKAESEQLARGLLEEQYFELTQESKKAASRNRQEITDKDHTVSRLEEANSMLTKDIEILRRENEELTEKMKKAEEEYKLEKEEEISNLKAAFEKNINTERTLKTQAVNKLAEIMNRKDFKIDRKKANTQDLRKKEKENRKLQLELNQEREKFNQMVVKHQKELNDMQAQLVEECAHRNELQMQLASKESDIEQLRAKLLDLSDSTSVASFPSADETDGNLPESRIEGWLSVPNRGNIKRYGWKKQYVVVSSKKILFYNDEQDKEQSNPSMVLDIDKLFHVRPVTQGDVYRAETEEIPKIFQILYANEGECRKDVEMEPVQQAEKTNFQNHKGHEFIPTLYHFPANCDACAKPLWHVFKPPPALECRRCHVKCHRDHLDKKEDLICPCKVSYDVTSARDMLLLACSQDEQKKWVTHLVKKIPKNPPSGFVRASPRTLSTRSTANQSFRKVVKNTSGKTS
Method: as §1

[9] = target: T1, SGK (Homo sapiens, UniProt O00141); experiment: Kinase profiling panel: SGK; format: biochemical; conditions: 5 μM compound; for % activity vs. DMSO, SGK: average of triplicate
T1 sequence (O00141 1-431): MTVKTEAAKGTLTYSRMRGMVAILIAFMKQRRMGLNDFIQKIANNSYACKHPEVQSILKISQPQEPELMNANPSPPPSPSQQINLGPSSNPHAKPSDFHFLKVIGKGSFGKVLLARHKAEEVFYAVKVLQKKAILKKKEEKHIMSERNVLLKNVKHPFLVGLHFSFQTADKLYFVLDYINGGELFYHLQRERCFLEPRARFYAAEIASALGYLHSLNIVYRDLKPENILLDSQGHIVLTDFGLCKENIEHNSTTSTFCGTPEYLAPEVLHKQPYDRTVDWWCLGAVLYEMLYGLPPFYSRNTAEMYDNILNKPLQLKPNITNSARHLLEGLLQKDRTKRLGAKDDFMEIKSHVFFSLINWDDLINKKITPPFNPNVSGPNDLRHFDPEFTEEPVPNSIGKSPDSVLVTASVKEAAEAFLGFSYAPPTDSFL
Method: as §1

[10] = test system: ERK phosphorylation; experiment: Western blot, ERK phosphorylation in thyroid cancer cells; format: cell-based, Human; conditions: 6 hours
Method: (§2) Protein isolation and Western blot were performed as previously described. Ringel et al., Cancer research 61:6105-6111 (2001). 25 μg of total cell lysates were loaded into 4-12% SDS-PAGE, electrophoresed, and transferred to nitrocellulose membranes for immunoblotting. Primary antibodies against Akt (#9272), phospho-Akt (Thr308) (#2965), p44/42 MAPK (Erk1/2) (#9107), phospho-p44/42 MAPK (Erk1/2) (Thr202/Tyr204) (#4377) and GAPDH (#2118) were obtained from Cell Signaling Technology (Danvers, Mass., USA). Antibody against Vimentin (V6630) and phospho-Ser55 Vimentin were from Sigma-Aldrich, Inc. (St. Louis, Mo.) and MBL Co. (Nagoya, Japan), respectively. Antibodies against total and phosphorylated S6 were from Cell Signaling Technology®.
(§3) The dose-dependency of compounds 4 and 15 was next assessed (FIG. 4). […] Due to the important role that ERK activation plays in thyroid cancer, and its signaling activation by thyroid oncogenes, the effects of the compounds on ERK phosphorylation was also assessed.

[11] = test system: S6 phosphorylation; experiment: Western blot, S6 phosphorylation in thyroid cancer cells; format: cell-based, Human; conditions: for S6 phosphorylation, BCPAP and TPC1 cells: BCPAP and TPC1 cells (FIG. 4B)
Method: as §2, §3

[12] = test system: TPC1 cells; experiment: Boyden chamber migration assay, TPC1; format: cell-based, Human; conditions: 5 μM, 24 hours, P<0.05 versus DMSO
Method: (§4) Cells were grown in media containing 10% FBS. After 24 hours, the medium was aspirated, and media containing 1% FBS was added for 24 hours. The cells were trypsinized for 2 to 5 minutes, washed, and resuspended in media containing 1% FBS. The cell concentration was calculated by hemocytometer. Four hundred μl 1% FBS medium was added into 24-well plates, and a Boyden chamber (8 μm pore) was inserted into each well. Cells were added to each insert, and were allowed to attach in an incubator at 37° C. at 5% CO2 for 2 hours. The cells were then exposed to various concentrations of drugs or control diluent for 3 hours. The inserts were switched to a new well containing media containing 10% FBS, and the chamber was incubated for 12 or 24 hours depending on the migration rate of the cell line. The cells on and under the Boyden chamber membrane were fixed with 3.7% formaldehyde containing 0.05% crystal violet for 15 min after washing cells with PBS. The chambers were washed with distilled water. […] The Q-tips containing the scraped cells and the Boyden chamber containing the non-migrated cells were separately incubated in 80% methanol, shaken at 500 g for 30 minutes, and the extracted dye was measured at 570 nm. Migration was quantified as the ratio of the migrated cells over the total cells (non-migrated plus […]). […]

[13] = test system: FTC133 cells; experiment: Boyden chamber migration assay, FTC133; format: cell-based, Human; conditions: 2.5 μM or 5.0 μM, 12 hours
Method: as §4

SMILES | % activity vs. DMSO, C-RAF [1] | % activity vs. DMSO, EGFR [2] | % activity vs. DMSO, IGF-1R, activated [3] | % activity vs. DMSO, LIMK1 [4] | % activity vs. DMSO, MEK1 [5] | inhibition at 5 µM [6] | remaining activity at 5 µM [6] | % activity vs. DMSO, PKCδ [7] | % activity vs. DMSO, ROCK-I [8] | inhibition at 5 µM [9] | % activity vs. DMSO, SGK [9] | ERK phosphorylation, all three cell lines ([10]; dose-response, BCPAP, FTC133 and TPC1 cells) | S6 phosphorylation, BCPAP and TPC1 cells [11] | Migration of TPC1 cells [12] | Migration of FTC133 cells [13] | ERK phosphorylation, BCPAP cells ([10]; 2.5 μM, BCPAP cells (BRAF V600E)) | ERK phosphorylation, other two cell lines ([10]; FTC133 and TPC1 cells) | S6 phosphorylation, FTC133 cells ([11]; FTC133 cells (FIG. 4B))
NCCC(=O)Nc1ccc(-n2nc(C(F)(F)F)cc2-c2ccc3ccc4ccccc4c3c2)cc1 [Compound 4, 3-amino-N-(4-(5-(phenanthren-3-yl)-3-(trifluoromethyl)-1H-pyrazol-1-yl)phenyl)-propanamide] | 104% | 99% | 97% | 130% | 106% | > 50% | 33% | 85% | 93% | > 50% | 27% | no demonstrable effects on ERK phosphorylation | inhibited this phosphorylation | decreased cell motility; also recorded: inhibited migration | not inhibited; also recorded: neither compound significantly inhibited migration | – | – | –
CC(C)NC(=O)c1cc(-c2ccc3ccc4ccccc4c3c2)n(-c2ccc(NC(=O)CN)cc2)n1 [Compound 15, 1-(4-(2-Aminoacetamido)phenyl)-N-isopropyl-5-(phenanthren-3-yl)-1H-pyrazole-3-carboxamide] | 108% | 100% | 83% | 117% | 101% | – | 56% | 110% | 95% | – | 64% | – | inhibited 56 phosphorylation | decreased cell motility; also recorded: inhibited migration | not inhibited; also recorded: neither compound significantly inhibited migration | inhibited ERK phosphorylation | at higher concentrations | inhibited 56 phosphorylation
